According to article PMC6562422, “Huzhangoside A Suppresses Tumor Growth through Inhibition of Pyruvate Dehydrogenase Kinase Activity” (Cancers, 2019):
One block for each molecule: values may come before it.

Assays:
[1] = molecular target: T1, PDHK1 (Homo sapiens, UniProt Q15118); settings: cited from earlier work
T1 construct: made in house; host or cells: Escherichia coli BL21(DE3)

[2] = tested on: tumor growth; settings: JX06 is ref 12; cited from earlier work
[3] = molecular target: T1, PDHK1; settings: read-out: IC50 for inhibiting PDHK1 activity; cited from earlier work
[4] = Blood biochemistry of tumor-bearing mice; assay type: in vivo, C57BL/6 mice; settings: serum; for Creatinine: below limit of detection; for BUN: mean ± SD (control 8.6 ± 0.8); for ALT: mean ± SD (control 14.8 ± 2.5); for AST: mean ± SD (control 79.8 ± 35.3)
Description: The blood sera were collected from the retro-orbital plexus of tumor-bearing mice treated with Hu.A. The levels of AST, ALT, BUN, and creatinine were analyzed by a commercial service provided by Green Cross Co. (Yongin, Korea).

[5] = molecular target: T2, GST-PDHK1 (Homo sapiens, UniProt Q15118); test: In vitro PDHK kinase assay (GST-PDHK1, recombinant PDHA, western blot); assay type: biochemical; settings: phosphorylation of recombinant PDHA by western blot
T2 construct: expressed in transfected cells; host or cells: HEK293T
T2 sequence (Q15118 29-436): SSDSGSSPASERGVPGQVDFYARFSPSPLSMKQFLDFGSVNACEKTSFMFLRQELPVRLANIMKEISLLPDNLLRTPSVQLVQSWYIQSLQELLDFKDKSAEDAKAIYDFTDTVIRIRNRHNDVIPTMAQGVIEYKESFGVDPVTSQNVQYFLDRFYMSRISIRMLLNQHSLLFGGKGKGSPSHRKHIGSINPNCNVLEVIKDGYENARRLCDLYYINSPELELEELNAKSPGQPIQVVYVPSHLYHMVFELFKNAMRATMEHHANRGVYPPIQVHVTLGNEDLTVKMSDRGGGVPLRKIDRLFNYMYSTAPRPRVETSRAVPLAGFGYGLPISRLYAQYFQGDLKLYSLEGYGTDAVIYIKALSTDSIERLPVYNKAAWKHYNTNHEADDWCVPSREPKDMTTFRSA
Description: The kinase assay of PDHK1 was carried out as described previously. Briefly, HEK293T cells, transfected with GST-PDHK1 construct, were lysed, and the lysate was incubated with Glutathione Sepharose 4B beads (Amersham Biosciences, Uppsala, Sweden). The beads were washed and recombinant PDHA was added and incubated for 5 min at 30 °C in the kinase buffer. The phosphorylation of PDHA was analyzed by western blot analysis.

[6] = tested on: LLC cells; test: MTT cell viability assay; assay type: cell-based, murine; settings: 3 μM, 24 h, serum free medium
Description: (§1) The cytotoxic effect of Hu.A was confirmed using a MTT assay. Briefly, DLD-1 cells (10^5 cells per well) were seeded in a 24-well plate and incubated overnight. The cells were then shifted to serum-free media and treated with Hu.A. MTT solution (2 mg/mL) was then added to the cells. The absorbance of formazan crystals formed were measured using a Spectramax M2 microplate reader (Molecular Devices, Sunnyvale, CA, USA) at 540 nm.
Supplementary materials Huzhangoside A Suppresses Tumor
Growth through Inhibition of Pyruvate
Dehydrogenase Kinase Activity
Choong-Hwan Kwak, Jung-Hee Lee, Eun-Yeong Kim, Chang Woo Han, Keuk-Jun Kim, Hanna Lee, MyoungLae Cho, Se Bok Jang, Cheorl-Ho Kim, Tae-Wook Chung and Ki-Tae Ha
Figure S1. Hu.A inhibited cell viability and phosphorylation of PDHA in LLC cells. (A) The LLC cells were treated with indicated concentrations of Hu.A in serum free medium for 24 h and MTT assay was performed. The data was indicated as mean ± SD. * p < 0.05 and *** p < 0.001 compared with the control. (B) In serum free condition, the LLC cells were treated with indicated concentrations of Hu.A for 4 h. The levels of phosphor-PDHA and total PDHA were analyzed by Western blotting assay. (C) Schematic diagram of the mechanisms of Hu.A-mediated apoptosis was shown. The red circle and white P indicated phosphates. […]

[7] = tested on: DLD-1 cells; test: MTT cell viability assay; assay type: cell-based, human
Description: as §1

[8] = tested on: HT-29 cells; test: MTT cell viability assay; assay type: cell-based, human; settings: 3 μM, 24 h
[9] = tested on: HL-60; set-up: method as in PMID 19952458; settings: read-out: IC50 against human cancer cell line; cited from earlier work
[10] = tested on: DLD-1 cells; test: Lactate production assay; assay type: cell-based, human
Description: Lactate in the cell culture medium was analyzed by a lactate fluorometric assay kit (Biovision, Milpitas, CA, USA) and measured using the Spectramax M2 microplate reader at 570 nm.

[11] = tested on: Hep3B cells; test: MTT cell viability assay; assay type: cell-based, human; settings: 3 μM, 24 h
[12] = tested on: DLD-1 cells; test: O2 consumption assay; assay type: cell-based, human; settings: serum-free medium, 6 h
Description: The O2 consumption rate was determined using the Oxygen Consumption Rate Assay Kit (Cayman Chemical, Ann Arbor, MI, USA) following the manufacturer’s protocol. The fluorescence of the oxygen probe was measured using the Spectramax M2 microplate reader at wavelengths of 380/650 nm.

[13] = tested on: LLC cell allograft; test: LLC tumor allograft in C57BL/6 mice; assay type: in vivo
Description: LLC cells (5 × 10^5 cells/100 μL PBS) were injected into the dorsal subcutaneous skin of C57BL/6 mice (n = 8 mice per group). The control (untreated) group and Hu.A-treated groups were administered 0 mg/kg and 0.1 mg/kg, 0.5 mg/kg, and 1 mg/kg of Hu.A in 100 μL PBS/20 g via intraperitoneal (i.p.) injection for 14 days, respectively. The mice were killed 14 days after inoculation of LLC cells and the tumors were seceded from the mice and analyzed. The volumes of LLC cell derived-tumors were calculated using the formula ((length × width^2)/2).
For immunohistochemical analysis, the tumor tissues were fixed with 3.7% formalin in PBS and embedded in paraffin. The paraffin sections were incubated with a primary antibody against the Ki-67, a cell proliferation marker, and visualized via Dako EnVision kit (Dako, Jena, Germany). The sections were counterstained with hematoxylin.

[14] = molecular target: T1, PDHK1; test: ATP-binding assay; settings: His-tagged PDHK1 on Ni-NTA beads, 37 °C
Description: The cloned PDHK1 was expressed in Escherichia coli BL21(DE3). The overexpressed protein was purified using affinity chromatography and gel filtration chromatography. The purified His-tagged PDHK1 was bound to Ni-NTA beads in binding buffer (20 mM HEPES-K^+ (pH 7.2) and 0.05% BSA) at 4 °C. The Ni-NTA beads with bound His-tagged PDHK1 were washed with the binding buffer followed by incubation with [α-^32P]ATP, ATP, and Hu.A at 37 °C. The beads were then washed with wash buffer (PBS). The bead-bound PDHK1 protein was achieved by 250 mM imidazole, and its radioactivity was detected by liquid scintillation counting.

[15] = tested on: MDA-MB-231 cells; test: MTT cell viability assay; assay type: cell-based, human; settings: 3 μM, 24 h
[16] = tested on: HSC-4; set-up: method as in PMID 19952458; settings: read-out: IC50 against human cancer cell line; cited from earlier work
[17] = tested on: A549; set-up: method as in PMID 19952458; settings: read-out: IC50 against human cancer cell line; cited from earlier work
[18] = tested on: PDHK1-4; test: PDHK1-4 protein expression (western blot) in DLD-1 cells; assay type: cell-based, human; settings: serum-free medium, 4 h
Description: Figure 2 Hu.A reduced the PDHK1 activity and promoted oxidative phosphorylation (OXPHOS) in DLD-1 cells. (A) In vitro PDHK1 kinase assay was performed. (B, C) DLD-1 cells were treated with Hu.A in serum-free medium for 4 h. The levels of phosphorylated pyruvate dehydrogenase E1α subunit (PDHA) (B), and PDHK1-4 (C) were analyzed using western blot assay. PDHA (B) and GAPDH (C) were used as loading controls. (D) The intensity of bands (PDHK1-4/GAPDH) from three independent experiments was measured and indicated by mean ± SD. (E) DLD-1 cells were treated with Hu.A in serum-free medium for 6 h. O2 consumption rate was measured by using commercially available Oxygen Consumption Rate Assay Kit. (F) Lactate production was measured by lactate fluorometric assay kit (right panel). The data are shown as mean ± SD, respectively. **, p < 0.01 compared with control.
Western blotting assay was carried out as described previously. Briefly, equal amounts (20 μg) of the cell lysates were separated by sodium dodecyl sulfate–polyacrylamide gel electrophoresis and were transferred onto the nitrocellulose membrane (Hybond ECL; GE Healthcare). The membrane was incubated with specific antibodies. The bands of the target proteins were detected using ECL Plus reagent and ImageQuant LAS 4000 (GE Healthcare, Menlo Park, CA, USA).

[19] = molecular target: T3, PDHK and PDC E2 subunit (Homo sapiens, UniProt Q15118); test: PDC subunits and PDHK binding assay; settings: 500 μM Hu.A, GST-PDHK1 pull-down, HEK293T lysate
T3 construct: expressed in transfected cells; host or cells: HEK293T (GST-PDHK1 transfected; E2 endogenous from HEK293T whole cell lysate)
T3 sequence (Q15118 29-436): as above
T3 sequence (P10515 87-647 partner): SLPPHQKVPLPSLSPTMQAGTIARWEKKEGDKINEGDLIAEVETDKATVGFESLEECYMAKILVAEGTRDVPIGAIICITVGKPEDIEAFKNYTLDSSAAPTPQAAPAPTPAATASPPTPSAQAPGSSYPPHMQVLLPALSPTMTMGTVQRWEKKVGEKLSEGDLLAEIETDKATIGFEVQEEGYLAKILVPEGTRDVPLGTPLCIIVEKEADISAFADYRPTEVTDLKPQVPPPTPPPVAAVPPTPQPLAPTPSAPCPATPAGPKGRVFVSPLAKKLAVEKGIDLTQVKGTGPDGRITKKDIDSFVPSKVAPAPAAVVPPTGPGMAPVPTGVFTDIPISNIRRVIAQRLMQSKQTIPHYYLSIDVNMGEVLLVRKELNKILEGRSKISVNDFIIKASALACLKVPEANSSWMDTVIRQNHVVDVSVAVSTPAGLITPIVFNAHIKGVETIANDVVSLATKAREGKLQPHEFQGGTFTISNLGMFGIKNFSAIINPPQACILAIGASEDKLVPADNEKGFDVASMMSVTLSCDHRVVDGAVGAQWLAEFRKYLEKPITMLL
Description: HEK293T cells, transfected with GST-PDHK1 construct, were lysed and incubated with Glutathione Sepharose 4B beads. The beads were washed and HEK293T whole cell lysate was added with/without 500 μM of Hu.A and the samples were analyzed by western blot analysis.

[20] = tested on: HSC-2; set-up: method as in PMID 19952458; settings: read-out: IC50 against human cancer cell line; cited from earlier work

T1 sequence (Q15118 29-436): as the sequence (Q15118 29-436) above

Compound: C[C@@H]1C[C@H]2O[C@@H]2/C=C\C=C\C(=O)Cc2c(Cl)c(O)cc(O)c2C(=O)O1 [radicicol]
concentration administered to suppress the intracellular PDHK1 activity [1]: 10 µM

Compound: S=C(SSC(=S)N1CCOCC1)N1CCOCC1 [JX06]
concentration required for inhibition of tumor growth in in vivo experiments [2]: 40 to 80 mg/kg | concentration administered to suppress the intracellular PDHK1 activity [1]: 10 µM | IC50 [3]: 49 nM

Creatinine ([4]; 0.1 mg/kg i.p.): < 0.17 mg/dL | BUN ([4]; 0.1 mg/kg i.p.): 8.8 ± 0.9 mg/dL | Creatinine ([4]; 0.5 mg/kg i.p.): < 0.17 mg/dL | BUN ([4]; 0.5 mg/kg i.p.): 8.9 ± 0.6 mg/dL | Creatinine ([4]; 1 mg/kg i.p.): < 0.17 mg/dL | BUN ([4]; 1 mg/kg i.p.): 8.4 ± 1.0 mg/dL | kinase activity of GST-PDHK1 [5]: significantly inhibited | [α-32P]ATP-binding activity of PDHK1 [14]: decreased | binding of PDHK and PDC E2 subunit [19]: did not significantly affect
Compound: CC1OC(OC2C(OC3CCC4(C)C(CCC5(C)C4CC=C4C6CC(C)(C)CCC6(C(=O)O)CCC45C)C3(C)C)OCC(O)C2O)C(O)C(OC2OCC(O)C(O)C2O)C1O (stereo not drawn) [Hu.A, Huzhangoside A]
ALT ([4]; 0.1 mg/kg i.p.): 16.7 ± 2.5 U/L | AST ([4]; 0.1 mg/kg i.p.): 94.5 ± 41.0 U/L | ALT ([4]; 0.5 mg/kg i.p.): 19.2 ± 5.6 U/L | AST ([4]; 0.5 mg/kg i.p.): 87.5 ± 33.8 U/L | ALT ([4]; 1 mg/kg i.p.): 19.6 ± 3.1 U/L | AST ([4]; 1 mg/kg i.p.): 95.2 ± 43.1 U/L | cytotoxic effect [6]: more than 80% | cytotoxic effect ([7]; 3 μM, 24 h): more than 80% | cytotoxic effect of Hu.A after MitoTEMPO pre-treatment ([7]; DLD-1, MitoTEMPO 50 μM 1 h pre-treatment, then 3 μM Hu.A 6 h, serum-free): significantly reduced | cytotoxic effect [8]: more than 80% | IC50 [9]: 2300 nM | secretory lactate levels in media [10]: reduced | cytotoxic effect [11]: more than 80% | O2 consumption rate [12]: increased | levels of cleaved forms of caspase-3, -9, and PARP in tumor tissues ([13]; 1 mg/kg, western blot): increased | growth of the allograft LLC cells (tumor volume and weight) ([13]; 0.1, 0.5 and 1 mg/kg/day i.p., dose-dependent): significantly suppressed | staining of Ki-67 in tumor tissues ([13]; immunohistochemistry, Hu.A-treated mice): reduced | phosphor-PDHA levels in tumor tissues ([13]; western blot, Hu.A-treated mice): markedly decreased | cytotoxic effect [15]: more than 80% | IC50 [16]: 11700 nM | IC50 [17]: 1500 nM | protein levels of PDHK isozymes (PDHK1-4) [18]: did not significantly change | IC50 [20]: 5700 nM
